Data published in article PMC5958064, “Single cell analysis of kynurenine and System L amino acid transport in T cells” (Nature Communications, 2018).

How the values were obtained:
D3 TH17cond CD4+ T cells = assay: FICZ uptake by flow cytometry (530 nm emission); assay type: cell-based, mouse; settings: FICZ 300 nM, 4 min, BCH 10 mM
Text: Error bars are ±s.d. Individual points indicate biological replicates. MFIs are indicated in the histograms, data are from three biological replicates (a–g, i–j) and six (Kyn) or three biological replicates (FICZ) (h).
As a control, we used the AHR ligand 6-formylindolo[3,2-b]carbazole (FICZ), a tryptophan-derived photoproduct. The intrinsic fluorescence of FICZ has previously been used to monitor cellular accumulation of FICZ by flow cytometry using BP filter for 530/30 nm emission with 488 nm laser excitation[27]. […] Further evidence for the importance of System L transport for kynurenine action came from experiments using BCH treatment to inhibit System L transport.

System L transporter = molecular target: T1, System L transporter (Mus musculus, UniProt Q9Z127); assay: Radiolabelled 3H-tryptophan uptake in TH1 cells and CTLs; assay type: cell-based; settings: BCH 5 mM
T1 construct: Radiolabelled tracer uptake in IL-2 maintained TH1 cells (top panels) and IL-2 maintained CTLs (bottom panels); endogenous in cells; host or cells: IL-2 maintained mouse TH1 cells and CTLs
T1 sequence (Q9Z127 whole entry): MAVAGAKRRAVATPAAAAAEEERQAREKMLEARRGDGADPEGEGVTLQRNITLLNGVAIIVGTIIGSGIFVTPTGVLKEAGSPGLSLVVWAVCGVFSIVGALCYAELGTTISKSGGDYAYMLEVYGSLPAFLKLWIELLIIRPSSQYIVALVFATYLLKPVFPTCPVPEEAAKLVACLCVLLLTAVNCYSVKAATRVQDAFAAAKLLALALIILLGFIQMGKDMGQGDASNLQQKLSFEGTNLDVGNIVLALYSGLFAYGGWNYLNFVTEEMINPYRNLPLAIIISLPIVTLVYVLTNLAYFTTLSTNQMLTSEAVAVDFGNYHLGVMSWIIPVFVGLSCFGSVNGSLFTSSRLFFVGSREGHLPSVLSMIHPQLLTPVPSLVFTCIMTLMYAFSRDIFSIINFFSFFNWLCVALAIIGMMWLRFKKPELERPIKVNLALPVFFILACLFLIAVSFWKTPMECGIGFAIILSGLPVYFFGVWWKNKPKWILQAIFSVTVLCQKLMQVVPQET
T1 sequence (P10852 whole entry partner): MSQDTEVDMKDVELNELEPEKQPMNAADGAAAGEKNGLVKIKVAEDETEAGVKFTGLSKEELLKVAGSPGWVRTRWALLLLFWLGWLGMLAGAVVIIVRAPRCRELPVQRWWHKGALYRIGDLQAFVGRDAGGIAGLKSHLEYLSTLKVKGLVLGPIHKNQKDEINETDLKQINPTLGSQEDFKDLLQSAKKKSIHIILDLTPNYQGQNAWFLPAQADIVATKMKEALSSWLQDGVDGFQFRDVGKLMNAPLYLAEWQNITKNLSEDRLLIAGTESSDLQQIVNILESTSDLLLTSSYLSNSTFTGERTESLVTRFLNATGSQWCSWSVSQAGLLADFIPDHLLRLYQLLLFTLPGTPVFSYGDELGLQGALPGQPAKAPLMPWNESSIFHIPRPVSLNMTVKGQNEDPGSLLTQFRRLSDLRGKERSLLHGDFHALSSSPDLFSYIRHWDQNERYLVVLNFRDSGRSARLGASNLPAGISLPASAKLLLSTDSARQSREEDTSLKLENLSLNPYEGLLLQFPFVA
Procedure: (§1) Briefly, radiolabelled uptake was carried out using 1 × 10^6 cells resuspended in 0.4 ml uptake medium. Kynurenine uptake was carried out in warmed (37 °C) HBSS (GIBCO) containing [^3H] L-kynurenine (0.1 μCi/ml). 4 min uptake assays were carried out layered over 0.5 ml of 1:1 silicone oil (Dow Corning 550 (BDH silicone products; specific density, 1.07 g/ml):dibutyl phthalate (Fluka)). Cells were pelleted below the oil, the aqueous supernatant solution, followed by the silicon oil/dibutyl phthalate mixture was aspirated, and the cell pellet underneath resuspended in 200 μl NaOH (0.5 M) and β-radioactivity measured by liquid scintillation counting in a Beckman LS 6500 Multi-Purpose Scintillation Counter (Beckman Coulter). Similarly, glutamine uptake was performed using [^3H] L-glutamine (0.5 μCi/ml); tryptophan uptake was performed using [^3H] L-tryptophan (0.5 μCi/ml). Where indicated, 5 mM BCH, Kynurenine, L-glutamine or L-tryptophan were used, respectively, to quench radiolabeled ligand uptake. Where indicated, the sodium free buffer was prepared using TMACl as described in Baird et al.[35] Data are expressed as molecules radiotracer per cell per minute. [^3H] L-kynurenine, [^3H] L-tryptophan and [^3H] L-glutamine were obtained from Perkin Elmer. All other chemicals were obtained from Sigma.

[1] = molecular target: T2, System L transporter SLC7A5 (Mus musculus, UniProt Q9Z127); assay: Flow cytometry kynurenine uptake assay (450 nm fluorescence) in T cells; assay type: cell-based; settings: D3 TH17cond CD4+ T cells, kynurenine 100 μM, 4 min, BCH 10 mM
T2 construct: endogenous in cells
T2 sequence (Q9Z127 whole entry): as the sequence (Q9Z127 whole entry) above
T2 sequence (P10852 whole entry partner): as the sequence (P10852 whole entry partner) above

activated T cells = assay: Radiolabelled 3H-glutamine uptake in activated T cells; assay type: cell-based, mouse; settings: IL-2 maintained TH1 cells and CTLs, BCH 5 mM
Procedure: as §1

AHR [2] = test system: AHR; design: method as in PMID 25657351, PMID 29279331; settings: cited from earlier work
AHR [3] = test system: AHR; design: method as in PMID 29279331; settings: COS-1 cells; read-out: EC50 for AHR activation; cited from earlier work
[4] = test system: Cyp1a1 (mRNA, through AHR); assay: Cyp1a1 mRNA induction in TH17cond CD4+ T cells (qPCR); assay type: cell-based, mouse; settings: mouse, day 3 TH17-conditioned primary CD4+ T cells, D3 TH17cond CD4+ T cells, 2 h; read-out: EC50 to drive Cyp1A1 mRNA expression
Procedure: To activate primary T cells, spleens and/or lymph nodes (LN) were removed, disaggregated and red blood cells lysed. Cells were stimulated with 1 μg/ml of the CD3 monoclonal antibody (2C11) and 2 μg/ml anti-CD28 (37.51; ebiosciences) to trigger the TCR. Naive CD4^+ T cells and 24 h TCR-activated CD4^+ T cells were purified using CD4 isolation kit (EasySep, STEMCELL Technologies). […] Proleukin, Novartis) for a further 3–5 days. To generate TH1s and TH17s, murine CD8^+ T cells were depleted from lymph node preparations using CD8 depletion kit (EasySep, STEMCELL Technologies). […] RnD Systems) and IL-2 (20 ng/ml) and for TH17s; cytokines IL-6 (50 ng/ml, Peprotech), IL-1β (10 ng/ml, Peprotech) and TGFβ (2 ng/ml, Peprotech). TH17s were cultured in IMDM (Gibco). All other cells were cultured in RPMI 1640 containing L-glutamine (Gibco). Culture media was supplemented with 10% FBS (Gibco), 50 μM β-mercaptoethanol (β-ME, Sigma) and penicillin/streptomycin (Gibco). Cells were incubated at 37 °C with 5% CO2 throughout. […] RNA was purified using the RNeasy RNA purification Mini Kit (Qiagen) (Genomic DNA was digested with RNase-free DNase (Qiagen) following manufacturer instructions) and reverse-transcribed using the iScript cDNA synthesis kit (BioRad). Quantitative PCR was performed in 96-well plate format using iQ SYBR Green-based detection (BioRad) on a BioRad iCycler.

mTORC1 = mTORC1 activity in CTLs after leucine removal and refeeding; assay type: cell-based, mouse; settings: CTLs removed from leucine, refed leucine 100uM ± Kyn 100uM
Text: page 13: • We […] would not be able to measure the levels of in vivo ky nurenine uptake with this assay (for the reasons explained above). However, this is a pertinent question, and will relate to the total amount of available kynurenine compared to alternative System L substrates. The detailed micro-environmental metabolomics techniques required to perform this kind of analysis is beyond the scope of this paper, however we have tried to address this point in the discussion. Second, did CD4 T cells (Foxp3-) and Tregs (Foxp3+) from Lm-infected mice also i mport Ky n? […] This, also, is a very interesting aspect, however we feel that it is beyond the scope of this paper. Point 4: Data presented in Figures 4 & 5 show convincingly that SLC7A5 ablation in CD4 T cells abolishes Kyn uptake in CD4 T cells selectively and that imported Kyn triggers AhR signaling in CD4 T cells, respectively. However, no data is presented to address the biological significance of these findings, specifically regarding the reported ability of Kyn to suppress Th1 responses (e.g. IFNg production) or to reinforce Treg-mediated suppression of effector T cells via AhR signaling. […]

Structure (SMILES)	effect on FICZ uptake (D3 TH17cond CD4+ T cells)	effect on 3H-tryptophan transport (System L transporter)	effect on kynurenine uptake [1]	effect on radiolabelled glutamine uptake (activated T cells)	concentrations needed to activate the AHR (AHR [2])	EC50 (AHR [3]) [µM]	EC50 at 2 h [4] [µM]	effect on mTORC1 activity (mTORC1)
NC1(C(=O)O)CC2CCC1C2 (centres unmarked) [BCH, 2-amino-2-norbornanecarboxylic acid]	not affected	inhibited	inhibited	failure to block				
Nc1ccccc1C(=O)CC(N)C(=O)O (centres unmarked) [kynurenine]					μM levels	13	11	impair restoration of mTORC1 activity
